Measurements reported in patent publication US4472435A, “Benzophenone derivatives useful in treating heart failure” (Hoffman-La Roche Inc., priority 1980, dated 1984).

Assays:
aldosterone = assay: Aldosterone antagonism in adrenalectomised rats (urine volume, sodium and potassium excretion); assay type: in vivo, Female Holtzmann rats; conditions: for Volume (urine volume), in %, based on control animals / [K+] (potassium excretion), in %, based on control animals / [Na+] (sodium excretion), in %, based on control animals: 30 min before aldosterone s.c., adrenalectomised rats, 3 h urine, control = aldosterone only
Method: These aldosterone-antagonistic properties can be dmonstrated in adrenalectomized rats as illustrated hereinafter.
If compounds of formula I are administered to the animals before the treatment with aldosterone, then there is observed, in comparison with the animals which are treated only with aldosterone (control animals), a pronounced increase of the sodium excretion (i.e. the sodium retention caused by aldosterone is antagonised), whereas the potassium excretion and the urine volume are influenced to a lesser extent.
The standard experiment is carried out as follows:
Female Holtzmann rats (150-180 g) are bilaterally adrenalectomised 70 to 74 hours before the beginning of the experiment. After the operation, the animals receive a customary rat dry feed and 0.9% sodium chloride solution for drinking. 16-17 hours before the beginning of the experiment the feed is removed from the animals, but they can subsequently drink, as before, 0.9% sodium chloride solution ad libitum. At the beginning of the experiment the substance to be tested as an aldosterone-antagonist is administered to the animals by means of a stomach probe. 30 minutes later the animals receive a subcutaneous injection of […] of aldosterone. After a further 90 minutes, the urinary bladders of the animals are emptied by careful suprapubic pressure, whereupon the animals are placed individually in metabolic cages without food and without drink. The urine of the animals is then collected for 3 hours, whereupon their urinary bladders are once more emptied. The spontaneously excreted urine and the remaining urine obtained at the conclusion of the experiment by pressing-out the urinary bladders are collected in graduated centrifuge glasses. Sodium and potassium concentrations in the urine are determined with a flame photometer.
(§1) The following Table contains results obtained in the previously described experiment with representative compounds of general formula I. In this Table there are given for each of the compounds figuring therein the dosage administered (in mg/kg p.o.) as well as the percentage variation in the urine volume, the sodium excretion and the potassium excretion in comparison with the control animals (i.e. in comparison with the animals treated only with aldosterone). Moreover, the Table contains data concerning the acute toxicity of the compounds investigated (LD 50 in mg/kg in the case of single oral administration to mice).

[1] = Acute toxicity, single oral administration; conditions: mouse, in vivo, mice
Description: as §1

[2] = aldosterone in adrenalectomised rats, compared to untreated animals

Row | Compound | Volume (urine volume), in %, based on control animals (aldosterone; 1 mg/kg p.o.) [%] | [K+] (potassium excretion), in %, based on control animals (aldosterone; 1 mg/kg p.o.) [%] | [Na+] (sodium excretion), in %, based on control animals (aldosterone; 1 mg/kg p.o.) [%] | LD50 [1] [mg/kg] | Volume (urine volume), in %, based on control animals (aldosterone; 0.1 mg/kg p.o.) [%] | [K+] (potassium excretion), in %, based on control animals (aldosterone; 0.1 mg/kg p.o.) [%] | [Na+] (sodium excretion), in %, based on control animals (aldosterone; 0.1 mg/kg p.o.) [%] | other results
1 | CN(C(=O)CN)c1ccc(N)cc1C(=NO)c1ccccc1Cl [CH3, COCH2 NH2, OH, Cl, NH2, 2,4'-diamino-2'-[o-chloro-α-(hydroxyimino)benzyl]-N-methylacetanilide] | 155 | 94 | 254 | > 5000 | – | – | – | –
2 | NCC(=O)Nc1ccc([N+](=O)[O-])cc1C(=NO)c1ccccc1Cl [H, COCH2 NH2, OH, Cl, NO2, 2-amino-2'-[o-chloro-α-(hydroxyimino)-benzyl]-4'-nitro-acetanilide] | – | – | – | > 5000 | 114 | 99 | 211 | –
3 | CC(=NO)c1ccc(NC(=O)CN)c(C(=NO)c2ccccc2F)c1 [H, COCH2 NH2, OH, F, drawing 7, 2-amino-2'-[o-fluoro-α-(hydroxyimino)benzyl]-4'-[1-(hydroxyimino)ethyl]acetanilide] | 156 | 102 | 327 | > 5000 | – | – | – | Volume (urine volume), in %, based on control animals (aldosterone; 0.01 mg/kg p.o.): 161%; [K+] (potassium excretion), in %, based on control animals (aldosterone; 0.01 mg/kg p.o.): 86%; [Na+] (sodium excretion), in %, based on control animals (aldosterone; 0.01 mg/kg p.o.): 215%
4 | NCC(=O)Nc1ccc([N+](=O)[O-])cc1C(=NO)c1ccccc1 [H, COCH2 NH2, OH, H, NO2, 2-amino-2'-[α-(hydroxyimino)-benzyl]-4'-nitro-acetanilide] | – | – | – | > 5000 | 152 | 97 | 230 | –
5 | C[C@]12CCC(=O)C=C1CC[C@@H]1[C@@H]2[C@@H](O)C[C@]2(C=O)[C@@H](C(=O)CO)CC[C@@H]12 [aldosterone, reference compound] | – | – | – | – | – | – | – | potassium excretion after aldosterone (in words) (aldosterone; [2]): increased potassium excretion; sodium excretion after aldosterone (in words) (aldosterone; [2]): pronounced reduction of the sodium excretion; urine volume after aldosterone (in words) (aldosterone; [2]): reduction of the excreted urine volume
